# In the NIST ThermoML archive (doi:10.1016/j.jct.2013.08.005):
# ± gives the expanded uncertainty stated by the source.
# Conditions: 298.15 K; Liquid; Gas chromatography
row,Structure (SMILES),vapor or sublimation pressure
1,"C[C@@H]1CCC[C@H](C)N1 [2,6-lupetidine, cis-]",1.576 ± 0.33 kPa
2,C1CCNCC1 [piperidine],3.52 ± 0.75 kPa
3,c1ccc(CC2CCNCC2)cc1 [4-benzylpiperidine],0.0015 ± 0.0003 kPa
4,CN[C@@H](C)Cc1ccccc1 [(S)-N-methyl-1-phenylpropan-2-amine],0.0375 ± 0.008 kPa

# Other lines, results leading:
row,vapor or sublimation pressure,Structure (SMILES)
1,0.00054 ± 0.00011 kPa,CCCCCCCNCCCCCCC [N-heptyl-1-heptanamine]
2,0.383 ± 0.12 kPa,CCCCNCCCC [dibutylamine]
3,5.6e-05 ± 1.2e-05 kPa,CCCCCCCCNCCCCCCCC [dioctylamine]
4,0.041 ± 0.009 kPa,CCCCCNCCCCC [dipentylamine]
